Experimental data as given in patent US12077503B2, “Substituted cyclic amides and their use as herbicides” (FMC CORPORATION, priority 2015, dated 2024).

Assays:
Assay type in all cases: in vivo
corn (Zea mays) [1] = assay: Test G Post-Emergence Protocol; details: Zea mays, post-emergence, 312 h; for plant injury at 15.625 g/ha: 15.625 g ai/ha, evaluated after 13 days (100=total damage to plant; 0=no damage to plant), read-out: Corn damage rating; for plant injury at 62.5 g/ha: 62.5 g ai/ha, read-out: Corn damage rating (100=total damage to plant; 0=no damage to plant); for plant injury at 62.5 g/ha / plant injury at 250 g/ha: evaluated after 13 days; for plant injury at 250 g/ha: 250 g ai/ha, read-out: damage to plant, Corn (100=total damage to plant; 0=no damage to plant)
Summary of the method: (§1)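 Foliar application was made 8 days after sowing, using an aqueous spray of the active in acetone/water (50:50) with 0.5% Tween 20, at doses of 15.625, 62.5 or 250 g/ha. Injury was assessed 13 days later, where 100 meant the plant was fully damaged.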

[2] = test system: barnyardgrass (Echinochloa crus-galli); assay: Test G Post-Emergence Protocol; details: Echinochloa crus-galli, post-emergence, 312 h; for pest or weed control at 15.625 g/ha: 15.625 g ai/ha, evaluated after 13 days (100=total damage to plant; 0=no damage to plant), read-out: Barnyardgrass damage rating; for pest or weed control at 62.5 g/ha: 62.5 g ai/ha, read-out: Barnyardgrass damage rating (100=total damage to plant; 0=no damage to plant); for pest or weed control at 62.5 g/ha / pest or weed control at 250 g/ha: evaluated after 13 days; for pest or weed control at 250 g/ha: 250 g ai/ha, read-out: damage to plant, Barnyardgrass (100=total damage to plant; 0=no damage to plant)
Summary of the method: as §1

[3] = test system: redroot pigweed (Amaranthus retroflexus); assay: Test G Post-Emergence Protocol; details: Amaranthus retroflexus, post-emergence, 312 h; for pest or weed control at 15.625 g/ha: 15.625 g ai/ha, evaluated after 13 days (100=total damage to plant; 0=no damage to plant), read-out: Pigweed, Redroot damage rating; for pest or weed control at 62.5 g/ha: 62.5 g ai/ha, read-out: Pigweed, Redroot damage rating (100=total damage to plant; 0=no damage to plant); for pest or weed control at 62.5 g/ha / pest or weed control at 250 g/ha: evaluated after 13 days; for pest or weed control at 250 g/ha: 250 g ai/ha, read-out: damage to plant, Pigweed, Redroot (100=total damage to plant; 0=no damage to plant)
Summary of the method: as §1

[4] = test system: ivy-leaved morning glory (Ipomoea hederacea); assay: Test G Post-Emergence Protocol; details: Ipomoea, post-emergence, 312 h; for pest or weed control at 15.625 g/ha: 15.625 g ai/ha, evaluated after 13 days (100=total damage to plant; 0=no damage to plant), read-out: Morningglory, Ivy-leaved damage rating; for pest or weed control at 62.5 g/ha: 62.5 g ai/ha, read-out: Morningglory, Ivy-leaved damage rating (100=total damage to plant; 0=no damage to plant); for pest or weed control at 62.5 g/ha / pest or weed control at 250 g/ha: evaluated after 13 days; for pest or weed control at 250 g/ha: 250 g ai/ha, read-out: damage to plant, Morningglory, Ivy-leaved (100=total damage to plant; 0=no damage to plant)
Summary of the method: as §1

[5] = test system: velvetleaf (Abutilon theophrasti); assay: Test G Post-Emergence Protocol; details: Abutilon theophrasti, post-emergence, 312 h; for pest or weed control at 15.625 g/ha: 15.625 g ai/ha, evaluated after 13 days (100=total damage to plant; 0=no damage to plant), read-out: Velvetleaf damage rating; for pest or weed control at 62.5 g/ha: 62.5 g ai/ha, read-out: Velvetleaf damage rating (100=total damage to plant; 0=no damage to plant); for pest or weed control at 62.5 g/ha / pest or weed control at 250 g/ha: evaluated after 13 days; for pest or weed control at 250 g/ha: 250 g ai/ha, read-out: damage to plant, Velvetleaf (100=total damage to plant; 0=no damage to plant)
Summary of the method: as §1

[6] = test system: giant foxtail (Setaria faberi); assay: Test G Post-Emergence Protocol; details: Setaria faberi, post-emergence, 312 h; for pest or weed control at 15.625 g/ha: 15.625 g ai/ha, evaluated after 13 days (100=total damage to plant; 0=no damage to plant), read-out: Foxtail, Giant damage rating; for pest or weed control at 62.5 g/ha: 62.5 g ai/ha, read-out: Foxtail, Giant damage rating (100=total damage to plant; 0=no damage to plant); for pest or weed control at 62.5 g/ha / pest or weed control at 250 g/ha: evaluated after 13 days; for pest or weed control at 250 g/ha: 250 g ai/ha, read-out: damage to plant, Foxtail, Giant (100=total damage to plant; 0=no damage to plant)
Summary of the method: as §1

corn (Zea mays) [7] = assay: Test G Pre-Emergence Protocol; details: Zea mays, pre-emergence, 312 h, evaluated after 13 days; for plant injury at 15.625 g/ha: 15.625 g ai/ha; for plant injury at 15.625 g/ha / plant injury at 250 g/ha: read-out: Corn damage rating (100=total damage to plant; 0=no damage to plant); for plant injury at 62.5 g/ha: 62.5 g ai/ha, 100=total damage to plant, 0=no damage to plant, read-out: plant damage rating, Corn; for plant injury at 250 g/ha: 250 g ai/ha
Summary of the method: (§2)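 Pre-emergence spray, 15.625/62.5/250 g/ha, vehicle acetone:water 50:50 + 0.5% Tween 20, applied 1 d after sowing. Glasshouse 24/16° C, 14 h light, 65% RH, watered twice daily. Visual damage rating at 13 d, 0–100 scale.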

[8] = test system: barnyardgrass (Echinochloa crus-galli); assay: Test G Pre-Emergence Protocol; details: Echinochloa crus-galli, pre-emergence, 312 h, evaluated after 13 days; for pest or weed control at 15.625 g/ha: 15.625 g ai/ha, read-out: Barnyard grass damage rating (100=total damage to plant; 0=no damage to plant); for pest or weed control at 62.5 g/ha: 62.5 g ai/ha, 100=total damage to plant, 0=no damage to plant, read-out: plant damage rating, Barnyardgrass; for pest or weed control at 250 g/ha: 250 g ai/ha, read-out: Barnyardgrass damage rating (100=total damage to plant; 0=no damage to plant)
Summary of the method: as §2

[9] = test system: redroot pigweed (Amaranthus retroflexus); assay: Test G Pre-Emergence Protocol; details: Amaranthus retroflexus, pre-emergence, 312 h, evaluated after 13 days; for pest or weed control at 15.625 g/ha: 15.625 g ai/ha; for pest or weed control at 15.625 g/ha / pest or weed control at 250 g/ha: read-out: Pigweed, Redroot damage rating (100=total damage to plant; 0=no damage to plant); for pest or weed control at 62.5 g/ha: 62.5 g ai/ha, 100=total damage to plant, 0=no damage to plant, read-out: plant damage rating, Pigweed, Redroot; for pest or weed control at 250 g/ha: 250 g ai/ha
Summary of the method: as §2

[10] = test system: ivy-leaved morning glory (Ipomoea hederacea); assay: Test G Pre-Emergence Protocol; details: Ipomoea, pre-emergence, 312 h, evaluated after 13 days; for pest or weed control at 15.625 g/ha: 15.625 g ai/ha, read-out: Morning-glory, Ivy-leaved damage rating (100=total damage to plant; 0=no damage to plant); for pest or weed control at 62.5 g/ha: 62.5 g ai/ha, 100=total damage to plant, 0=no damage to plant, read-out: plant damage rating, Morningglory, Ivy-leaved; for pest or weed control at 250 g/ha: 250 g ai/ha, read-out: Morningglory, Ivy-leaved damage rating (100=total damage to plant; 0=no damage to plant)
Summary of the method: as §2

[11] = test system: velvetleaf (Abutilon theophrasti); assay: Test G Pre-Emergence Protocol; details: Abutilon theophrasti, pre-emergence, 312 h, evaluated after 13 days; for pest or weed control at 15.625 g/ha: 15.625 g ai/ha; for pest or weed control at 15.625 g/ha / pest or weed control at 250 g/ha: read-out: Velvetleaf damage rating (100=total damage to plant; 0=no damage to plant); for pest or weed control at 62.5 g/ha: 62.5 g ai/ha, 100=total damage to plant, 0=no damage to plant, read-out: plant damage rating, Velvetleaf; for pest or weed control at 250 g/ha: 250 g ai/ha
Summary of the method: as §2

[12] = test system: giant foxtail (Setaria faberi); assay: Test G Pre-Emergence Protocol; details: Setaria faberi, pre-emergence, 312 h, evaluated after 13 days; for pest or weed control at 15.625 g/ha: 15.625 g ai/ha; for pest or weed control at 15.625 g/ha / pest or weed control at 250 g/ha: read-out: Foxtail, Giant damage rating (100=total damage to plant; 0=no damage to plant); for pest or weed control at 62.5 g/ha: 62.5 g ai/ha, 100=total damage to plant, 0=no damage to plant, read-out: plant damage rating, Foxtail, Giant; for pest or weed control at 250 g/ha: 250 g ai/ha
Summary of the method: as §2

Cc1cc(NC(=O)[C@@H]2C(=O)N(C)C[C@H]2c2ccc(C(F)(F)F)cc2)on1 (racemic) [Compound 1579]
plant injury at 15.625 g/ha (corn (Zea mays) [1]): 0%
plant injury at 62.5 g/ha (corn (Zea mays) [1]): 0%
plant injury at 250 g/ha (corn (Zea mays) [1]): 0%
pest or weed control at 15.625 g/ha [2]: 0%
pest or weed control at 62.5 g/ha [2]: 10%
pest or weed control at 250 g/ha [2]: 10%
pest or weed control at 15.625 g/ha [3]: 0%
pest or weed control at 62.5 g/ha [3]: 0%
pest or weed control at 250 g/ha [3]: 0%
pest or weed control at 15.625 g/ha [4]: 0%
pest or weed control at 62.5 g/ha [4]: 0%
pest or weed control at 250 g/ha [4]: 0%
pest or weed control at 15.625 g/ha [5]: 0%
pest or weed control at 62.5 g/ha [5]: 0%
pest or weed control at 250 g/ha [5]: 0%
pest or weed control at 15.625 g/ha [6]: 0%
pest or weed control at 62.5 g/ha [6]: 0%
pest or weed control at 250 g/ha [6]: 0%
plant injury at 15.625 g/ha (corn (Zea mays) [7]): 0%
plant injury at 62.5 g/ha (corn (Zea mays) [7]): 0%
plant injury at 250 g/ha (corn (Zea mays) [7]): 0%
pest or weed control at 15.625 g/ha [8]: 0%
pest or weed control at 62.5 g/ha [8]: 0%
pest or weed control at 250 g/ha [8]: 0%
pest or weed control at 15.625 g/ha [9]: 0%
pest or weed control at 62.5 g/ha [9]: 0%
pest or weed control at 250 g/ha [9]: 0%
pest or weed control at 15.625 g/ha [10]: 0%
pest or weed control at 62.5 g/ha [10]: 0%
pest or weed control at 250 g/ha [10]: 0%
pest or weed control at 15.625 g/ha [11]: 0%
pest or weed control at 62.5 g/ha [11]: 0%
pest or weed control at 250 g/ha [11]: 0%
pest or weed control at 15.625 g/ha [12]: 0%
pest or weed control at 62.5 g/ha [12]: 0%
pest or weed control at 250 g/ha [12]: 0%

CN1C[C@@H](c2ccc(C(F)(F)F)cc2)[C@H](C(=O)Nc2ccccc2Cl)C1=O (racemic) [Compound 1598]
plant injury at 15.625 g/ha (corn (Zea mays) [1]): 0%
plant injury at 62.5 g/ha (corn (Zea mays) [1]): 40%
plant injury at 250 g/ha (corn (Zea mays) [1]): 60%
pest or weed control at 15.625 g/ha [2]: 30%
pest or weed control at 62.5 g/ha [2]: 80%
pest or weed control at 250 g/ha [2]: 70%
pest or weed control at 15.625 g/ha [3]: 30%
pest or weed control at 62.5 g/ha [3]: 50%
pest or weed control at 250 g/ha [3]: 70%
pest or weed control at 15.625 g/ha [4]: 30%
pest or weed control at 62.5 g/ha [4]: 60%
pest or weed control at 250 g/ha [4]: 70%
pest or weed control at 15.625 g/ha [5]: 0%
pest or weed control at 62.5 g/ha [5]: 20%
pest or weed control at 250 g/ha [5]: 50%
pest or weed control at 15.625 g/ha [6]: 80%
pest or weed control at 62.5 g/ha [6]: 80%
pest or weed control at 250 g/ha [6]: 80%
plant injury at 15.625 g/ha (corn (Zea mays) [7]): 0%
plant injury at 62.5 g/ha (corn (Zea mays) [7]): 10%
plant injury at 250 g/ha (corn (Zea mays) [7]): 70%
pest or weed control at 15.625 g/ha [8]: 0%
pest or weed control at 62.5 g/ha [8]: 70%
pest or weed control at 250 g/ha [8]: 80%
pest or weed control at 15.625 g/ha [9]: 10%
pest or weed control at 62.5 g/ha [9]: 40%
pest or weed control at 250 g/ha [9]: 50%
pest or weed control at 15.625 g/ha [10]: 10%
pest or weed control at 62.5 g/ha [10]: 20%
pest or weed control at 250 g/ha [10]: 40%
pest or weed control at 15.625 g/ha [11]: 0%
pest or weed control at 62.5 g/ha [11]: 10%
pest or weed control at 250 g/ha [11]: 60%
pest or weed control at 15.625 g/ha [12]: 60%
pest or weed control at 62.5 g/ha [12]: 80%
pest or weed control at 250 g/ha [12]: 90%
